Here are results for 1 substance from patent US20240398831A1, “COMPOSITIONS COMPRISING SMALL MOLECULE REGULATORS OF TUMOR IMMUNITY AND METHODS OF USING SAME” (Duke University, priority 2021, published 2024).

The subject of experiment [1] is B16F10 cells. The experiment is described as follows: Quantitative PCR of ER target genes in melanoma cells. The settings on record: E2 1 nM, 16 hr. Type of experiment: cell-based, mouse.
The test system of experiment [2] is YuMM5.2 cells. The experiment is described as above. Type of experiment: cell-based, mouse. The following applies: E2 1 nM, 16 hr.
The subject of experiment [3] is B16F10 cells. Description: Proliferation assay. In kind it is cell-based, mouse. The settings on record: E2 0.01-1 nM, 3 days. On the procedure: ERα+ MCF7 cells served as a positive control. Cells were treated as either mock transfected or transfected with scrambled control or three different siRNA targeting Esr1. […] Esr1 was first normalized to Rplp0 and then Esr1 knockdown samples were normalized to a non-targeting control. RNA was collected from both cell lines after 48 hr of siRNA transfection. […] Mouse ovary served as a positive control. […] ERα+MCF7 cells served as a positive control (FIG. 5E, left). […] Data are expressed as individual data points and represented as mean±S.E.M. Significance was calculated by Student's t test or two-way ANOVA (FIGS. 5E-5F), followed by Bonferroni's multiple correction (**p<0.0001).
Proliferation assay. For proliferation assays, B16F10 cells were plated in DMEM media (without phenol red) supplemented with 10% charcoal-stripped FBS. Cells were plated at a concentration of 1000 cells/well of a 96-well plate for 2 days in 200 μL of media. […] Cells were collected every 24 hr by discarding the media from the plates. Plates were frozen at −80° C. […] Cell numbers were determined by the addition of 100 μL of (conc.) DNA dye […] dye (Sigma Cat #94403) in TNE buffer (10 mM Tris, 2M NaCl and 1 mM EDTA) and the fluorescence was read at an excitation of 360 nm and an emission at 465 nm using a microplate reader.

Experiment [4] concerns B16F10 tumors. Description: B16F10 tumor growth in ovariectomized NSG mice. Type of experiment: in vivo, mouse. On the procedure: Tumor formation in these mice were induced with a single intradermal dose of 150 μg of 4-hydroxytamoxifen (4OHT). […] FIGS. 6A-6B and FIGS. 6E-6F are representative of two independent experiments. Data are expressed as mean t S.E.M. Significance was calculated using the Student's t test (FIG. 6C and FIG. 6H), log-rank test (FIG. 6D and FIG. 6G), and two-way ANOVA followed by Bonferroni's multiple correction (FIGS. 6A-6B, FIGS. 6E-6F, and FIG. 6I) (*p<0.05, *p<0.01, and ***<0.001).
Mice. C57BL/BJ, LysMCre (B6.129P2-Lyz2^tm1(cre)lfo/J) Pmel (B6.Cg-Thy1^a/Cy Tg(TcraTcrb)8Rest/J) mice were from Jackson Laboratories (Bar Harbor, ME). Age matched mice were used for all the studies. LysMCre mice were bred to Esr1^f/f mice to generate Esr1^f/f; LysMCre and littermate control LysMCre and Esr1^f/f mice. iBP (Braf^V600E/WT, Pten^f/fmTyrCreERT2) mice were generated by crossing breeders Braf^WT/WT/Pten^f/f, mTyrCreERT2 mice to BRAF^V600E, Pten^f/f mice. The mice were housed in secure animal facility cages in 12 hour light:dark cycles at temperature around 25° C. and 70% humidity. […]
Tumor models and cells. […] Tumors were measured thrice weekly using an electronic caliper. Tumor volumes were calculated by the formula V=L×(W×W)/2. For iBP mouse tumors, volumes were calculated by the formula V=L×B×H. For tumor growth rate studies mice were euthanized when the tumors reached a maximum size of 2000 mm^3.

Experiment [5] relates to iBP tumors. Description: iBP autochthonous melanoma mouse model (tumor growth, flow cytometry). Type of experiment: in vivo. The following applies: E2 vs placebo. An excerpt:
Mice. C57BL/BJ, LysMCre (B6.129P2-Lyz2^tm1(cre)lfo/J) Pmel (B6.Cg-Thy1^a/Cy Tg(TcraTcrb)8Rest/J) mice were from Jackson Laboratories (Bar Harbor, ME). Age matched mice were used for all the studies. LysMCre mice were bred to Esr1^f/f mice to generate Esr1^f/f; LysMCre and littermate control LysMCre and Esr1^f/f mice. iBP (Braf^V600E/WT, Pten^f/fmTyrCreERT2) mice were generated by crossing breeders Braf^WT/WT/Pten^f/f, mTyrCreERT2 mice to BRAF^V600E, Pten^f/f mice. The mice were housed in secure animal facility cages in 12 hour light:dark cycles at temperature around 25° C. and 70% humidity. Mice had access to ad-libitum food and water. NSG (NOD.Cg-Prkd^scid Il2rg^tm1Wjl/SzJ) mice were from the Division of Laboratory Animal Resources (Duke University). The NSG animals were fed with a GL3 diet and were kept in pathogen free conditions.
Tumor models and cells. The mouse B16F10 and Yumm5.2 cell lines were purchased from American Type Culture Collection (ATCC, Manassas, VA). The mouse melanoma cell line BPD6 was established from iBP as described elsewhere (Zhao et al., Immunity 2018, 48, 147-160). B16F10 and BPD6 cells were maintained in Dulbecco's Modified Eagle's Medium (DMEM) supplemented with 8% fetal bovine serum (FBS), 0.1 mM non-essential amino acids (NEAA) and 1 mM sodium pyruvate. YuMM5.2 cells were maintained in DMEM/F12 media supplemented with 10% FBS. The cells were replated 3 times/week at a confluency of 1:10 and were kept in a 37° C. incubator at 5% CO2. For subcutaneous tumor models B16F10 (5×10^4 or 1×10^5), YuMM5.2 (5×10^5), and BPD6 (5×10^5) cells were injected into the right flank of the mice. For iBP mice, tumors were induced with a single intradermal dose of 4-hydroxytamoxifen in DMSO (150 μg/mouse). Tumors were measured thrice weekly using an electronic caliper. Tumor volumes were calculated by the formula V=L×(W×W)/2. For iBP mouse tumors, volumes were calculated by the formula V=L×B×H. For tumor growth rate studies mice were euthanized when the tumors reached a maximum size of 2000 mm^3.
Ovarlectomy and subcutaneous pellet Insertion. Ovariectomy was performed as previously described (Nelson et al., Science 2013, 342, 1094-1098). Eight days prior to tumor inoculation, 7 weeks old C57BL/6J or 5 weeks old (iBP) female mice were subjected to ovariectomy or sham surgery. Mice were anesthetized in an inhalation chamber (2% Isoflurane) and maintained in half the dose of isoflurane (1%) via nose cone throughout the surgical process. Prior to surgery, mice were administered a 5 mg/kg dose of carprofen subcutaneously. The area below the ribs was shaved with an electronic razor and the skin was sterilized by rubbing with betadine and alcohol (3× alternating). A horizontal incision was made through the skin above the ovary fat pad, followed by a vertical incision through the abdominal muscle wall. The ovary was externalized and removed using a cauterizing scissors (or returned if sham). Fat pad was replaced, and muscle walls were opposed and sutured (1-2 stitches). Following suturing, 1 drop of bupivacaine (0.25%) was added on top of the incision site. The skin was opposed, and a wound clip was placed on the incision site. This was repeated for the other ovary. The mouse was then removed from anesthesia and kept in a clean cage and monitored until conscious. The mice were monitored for recovery for 10 days.
Single cell isolation from tumors. Tumors were isolated, minced on a petri dish in media (DMEM+5% FBS), and then enzymatically digested by the addition of 100 μg/mL DNase I (D5025-150KU, Sigma-Aldrich) and 1 mg/mL collagenase (Collagenase A, Cat #10103586001, Sigma-Aldrich) for 30 mins-45 mins. For iBP models, isolated tumors were sliced into large chunks and subjected to mechanical digestion in a gentleMACS Dissociator for 30 seconds twice. […]
On the technique in general: A flow cytometer gives signals particle by particle.

Take 17β-estradiol [E2]: the “expression of classical ER target genes (Pgr and Cxc112)” value in experiment [1] is given as “did not lead to changes”. The “expression of classical ER target genes (Pgr and Cxc112)” value in experiment [2] is “did not lead to changes”. In addition, the proliferation entry in experiment [3] is on record as “nor did it support proliferation”. In experiment [4], the “slower tumor growth kinetics imparted by ovariectomy (placebo vs E2)” value is listed as “disappeared”. Further, the tumor growth result in experiment [5] (ovariectomized iBP mice) was “accelerated tumor growth”. Besides, in experiment [5] (flow cytometry), the “CD3+ T cell population, tumor-infiltrating” value was “overall decrease”; the “infiltration of immune cells (CD45+)” value is reported as “not impacted by treatment”; the number of monocytes result is recorded as “trend was observed towards an increase”; the “ratio of intratumoral M1 (MHCII^hi CD206−) to M2 (MHCII^lo CD206+/hi) macrophages” value is “decreases”. Besides, the “total number of F480+ macrophages” value in experiment [5] (flow cytometry) is “remaining unchanged”. Further, in experiment [5] (flow cytometry, FIGS. 16B-16C show B16F10 and YuMM5.2), the “CD4+ T cells, tumor-infiltrating” value is “no significant changes”.
